Test results: patent publication US7910602B2 (Sanofi-Aventis, priority 2005, dated 2011)

Molecular target: T1, GRK2 (βARK-1) (Homo sapiens, UniProt P25098)
T1 sequence (P25098 1-689): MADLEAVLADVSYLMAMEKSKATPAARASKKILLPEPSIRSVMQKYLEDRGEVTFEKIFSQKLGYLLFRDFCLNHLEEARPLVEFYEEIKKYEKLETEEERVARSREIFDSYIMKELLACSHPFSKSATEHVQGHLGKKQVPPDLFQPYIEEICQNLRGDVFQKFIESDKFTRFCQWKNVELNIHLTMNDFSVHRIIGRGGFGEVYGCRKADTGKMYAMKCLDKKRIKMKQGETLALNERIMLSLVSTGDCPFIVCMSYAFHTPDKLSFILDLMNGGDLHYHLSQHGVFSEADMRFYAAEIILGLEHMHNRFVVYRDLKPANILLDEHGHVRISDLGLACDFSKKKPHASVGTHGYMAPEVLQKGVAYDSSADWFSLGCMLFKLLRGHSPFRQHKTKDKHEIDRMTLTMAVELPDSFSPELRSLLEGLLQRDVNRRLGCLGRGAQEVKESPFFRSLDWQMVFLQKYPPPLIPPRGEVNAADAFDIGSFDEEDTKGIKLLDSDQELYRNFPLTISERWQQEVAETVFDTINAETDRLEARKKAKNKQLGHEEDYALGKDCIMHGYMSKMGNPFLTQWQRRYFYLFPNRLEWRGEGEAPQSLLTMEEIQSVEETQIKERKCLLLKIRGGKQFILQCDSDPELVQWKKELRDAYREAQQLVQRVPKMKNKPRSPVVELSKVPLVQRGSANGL
Experiment: GRK2 (βARK-1) kinase assay: 33P phosphorylation of biotinylated bovine tubulin dimers, scintillation counting
Format: biochemical
Conditions: 100 nM GRK2 pre-incubated with inhibitor 30 min at room temperature; 250 nM tubulin, 3 μM ATP, [γ-33P]-ATP, 30 min reaction
Method: The assay determines phosphorylation of biotinylated bovine tubulin dimers (250 nM; TEBU-BIO, # T333) coated to 384 well StreptaWell plates by 100 nM GRK2 which has been pre-incubated with inhibitor cpd. for 30 minutes at room temperature in assay buffer (20 mM Tris-HCl pH 7.4, 2 mM EDTA) containing 2.25% DMSO. The phosphorylation reaction was started by adding tubulin, MgCl2 (10 mM), ATP (3 μM), [γ-^33P]-ATP (0.4 μCi/40 μl) to the preincubated GRK2/compound complex. Then the assay mix was incubated for 30 min at room temperature before the kinase reaction was stopped adding 0.8% BSA, 0.8% Triton X 100, 80 mM EDTA and 400 μM ATP) followed by an 2-24 h incubation at +4° C. Due to the high energy of the […] free ^33P-ATP is removed by a washing step (3× with 100 μl 1×PBS pH 8.0) using a Tecan Power washer 384 to reduce background activity. Bound ^33P is determined by scintillation counting (60 μl scintillator, Ultimagold MV, 30 sec mix) using a Microbeta-counter (delay time 30 min).

| IC50 [nM] | SMILES |
| --- | --- |
| 270 | Cn1cc(-c2cc(C(N)=O)nc3[nH]ncc23)c2ccccc21 [Example 4] |
| 20 | Cn1cc(-c2cc(C(N)=O)nc3[nH]ncc23)c2cc(OCC(N)=O)ccc21 [Example 8, 4-(5-Carbamoylmethoxy-1-methyl-1H-indol-3-yl)-1H-pyrazolo[3,4-b]pyridine-6-carboxylic acid amide] |
| 2100 | NC(=O)c1cc(-c2cccc(O)c2)c2cn[nH]c2n1 [Example 16] |

| SMILES | IC50 [nM] |
| --- | --- |
| Cn1cc(-c2cc(C(N)=O)nc3[nH]ncc23)c2cc(OCC3CCCNC3)ccc21 (stereo not shown) [Example 3, 4-(1-methyl-5-(piperidin-3-ylmethoxy)-1H-indol-3-yl)-1H-pyrazolo(3,4-b)pyridine-6-carboxylic acid amide] | 700 |
